Results as given in patent US7241613B1, “Identification of Candida cell surface proteins and their uses” (priority 2002, dated 2007).
Values after ≈ are worked out from the molar mass of the structure shown. Read-outs that look alike come from different tables or passages of the source. Starred links: 1 amine or outer side, 2 acyl side, 3 side chain; linkers in the order of their positions; H or OH if unused. Positions of bridges follow the written chain, without caps; N, C: chain ends. Non-standard residues stand in square brackets, D forms with d. Residues, ends and D or L forms follow the SMILES beside them. *: point of attachment. hTyr(3S-OH,4S-OH,3'-OSO3H) = N[C@H](C(=O)O)[C@H](O)[C@@H](O)c1ccc(O)c(OS(=O)(=O)O)c1; Orn(4R-OH,5R-OH) = O=C([C@H](C[C@@H](O)[C@@H](O)N[*:3])N[*:1])[*:2]; Pro(3S-OH,4S-Me) = C[C@H]1CN[C@H](C(=O)O)[C@H]1O; X1 = CCCCCOc1ccc(-c2cc(-c3ccc(C(=O)*)cc3)no2)cc1; Gln(3R-OH) = NC(=O)C[C@@H](O)[C@H](N)C(=O)O; Hyp = O=C(O)[C@@H]1C[C@@H](O)CN1

How the values were obtained:
C. albicans null mutants = assay: Sensitivities to calcofluor white, SDS or NaCl (spotting cells on YPD plates); type: cell-based, Candida albicans; conditions: for Calcofluor white (CW) sensitivity: 3-25 μg/ml CW; for Calcofluor white (CW) sensitivity / NaCl sensitivity: YPD plates, 37° C.; for NaCl sensitivity: 1-3 M NaCl
Experimental: To investigate the effect of gene disruption on cell wall integrity and remodeling, we tested the sensitivity of all csf null mutants to calcofluor white (CW; Fluorescent Brightener 28-Sigma), SDS or NaCl by spotting cells on plates. Exponential cultures were harvested and adjusted to an OD600 of 0.24. 2.5 μl of samples plus three to four tenfold serial dilutions were deposited on the surface of YPD plates containing increasing concentrations of the compound: 3-25 μg/ml CW, 1-3 M NaCl, 0.01-0.5% SDS. […]
We further characterized the mutants by determining their susceptibility to calcofluor white, SDS and NaCl. The first column contains the name of the strains.
To go further in the analysis, we decided to test cells for their ability to respond to hyperosmotic stresses that require cell wall remodeling and integrity.

[1] = test system: C. albicans csf null mutants, clinical isolate and parental strain; assay: Antifungal susceptibility assay (MIC, NCCLS M27A); type: cell-based, Candida albicans; conditions: all isolates, RPMI 1640, 35° C., 48 hours
Experimental: Assays were performed at the Center for Medical Mycology, University Hospitals of Cleveland to investigate whether the csf null mutants show a higher susceptibility to antifungals when compared to wild-type. The minimum inhibitory concentrations (MIC) of three antifungal agents, amphotericin B, fluconazole and micafungin, against each fungal isolate were determined according to the NCCLS M27A standard for susceptibility testing of yeasts. […] The MIC endpoint was defined as the lowest concentration that inhibits 80% of fungal growth as compared to the growth control, for fluconazole and micafungin, and 100% inhibition for amphotericin B.
In order to investigate more extensively the effects induced by the loss of the targeted genes on the cell wall (e.g. cell wall permeability), we tested whether the mutant strains were more susceptible to antifungal drugs. Three different antifungal agents were tested at Cleaveland: one polyene (Amphotericin B; a compound that binds to ergosterols and increases membrane permeability), one azole (Fluconazole; a compound that interferes with the ergosterol biosynthesis pathway) and one echinochandin (Micafungin; a compound that inhibits the β-glucan synthetase). No differences in MIC were detected. The MIC of amphotericin B against all isolates, including the clinical isolate and parental strain, was 0.5-1 μg/ml.

[2] = test system: Sap2p, Sap1p, Sap1p and Sap1p; conditions: in micromolar concentrations; cited from earlier work
hsp90 = hsp90 (Candida albicans, UniProt P46598); conditions: first stage of double-blind Phase II trial, systemic candidiasis; cited from earlier work
hsp90, sequence (P46598 whole entry): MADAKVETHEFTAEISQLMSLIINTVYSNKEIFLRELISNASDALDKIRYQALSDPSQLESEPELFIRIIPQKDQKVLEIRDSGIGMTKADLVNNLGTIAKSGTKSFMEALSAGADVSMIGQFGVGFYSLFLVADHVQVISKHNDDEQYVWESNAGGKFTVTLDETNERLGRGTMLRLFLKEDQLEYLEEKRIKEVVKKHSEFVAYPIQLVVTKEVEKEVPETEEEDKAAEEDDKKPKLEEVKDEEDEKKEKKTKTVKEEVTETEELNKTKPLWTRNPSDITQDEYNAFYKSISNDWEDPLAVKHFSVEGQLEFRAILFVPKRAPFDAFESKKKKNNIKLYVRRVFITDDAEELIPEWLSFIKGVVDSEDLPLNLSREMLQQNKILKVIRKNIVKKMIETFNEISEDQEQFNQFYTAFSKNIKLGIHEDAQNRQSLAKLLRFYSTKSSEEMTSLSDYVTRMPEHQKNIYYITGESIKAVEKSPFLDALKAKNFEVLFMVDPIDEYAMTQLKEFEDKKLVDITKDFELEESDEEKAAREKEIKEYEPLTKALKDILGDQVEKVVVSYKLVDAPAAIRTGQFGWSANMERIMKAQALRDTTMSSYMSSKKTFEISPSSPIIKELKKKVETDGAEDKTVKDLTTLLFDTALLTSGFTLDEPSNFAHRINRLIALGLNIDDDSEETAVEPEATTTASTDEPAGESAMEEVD

[3] = 6.1231 null mutant vs wild type
[4] = 6.1639 null mutant vs wild type
[5] = 6.3873 null mutant vs wild type
[6] = Candida albicans, endpoint 80% inhibition of fungal growth, read-out: MIC

## O=S(=O)(O)c1cc(Nc2nc(Nc3ccccc3)nc(N(CCO)CCO)n2)ccc1/C=C/c1ccc(Nc2nc(Nc3ccccc3)nc(N(CCO)CCO)n2)cc1S(=O)(=O)O [Calcofluor white, calcofluor white]
C. albicans null mutants; [3]
  Calcofluor white (CW) sensitivity: +++
C. albicans null mutants; 6.1231Δ, 25 μg/ml calcofluor
  growth in the presence of calcofluor: no more cells were growing
C. albicans null mutants; [4]
  Calcofluor white (CW) sensitivity: +
C. albicans null mutants; [5]
  Calcofluor white (CW) sensitivity: ++
C. albicans null mutants; als1 null mutant vs wild type
  Calcofluor white (CW) sensitivity: +
C. albicans null mutants; hwp1 null mutant vs wild type
  Calcofluor white (CW) sensitivity: +
C. albicans null mutants; mp65 null mutant vs wild type
  Calcofluor white (CW) sensitivity: +++
C. albicans null mutants; mp65Δ
  sensitivity to calcofluor white: highly sensitive
C. albicans null mutants; pra1 null mutant vs wild type
  Calcofluor white (CW) sensitivity: ++
C. albicans null mutants; sap9 null mutant vs wild type
  Calcofluor white (CW) sensitivity: +

## [Cl-].[Na+] [NaCl]
C. albicans null mutants; [3]
  NaCl sensitivity: +
C. albicans null mutants; [4]
  NaCl sensitivity: +
C. albicans null mutants; [5]
  NaCl sensitivity: +
C. albicans null mutants; all six csf mutants, increasing NaCl concentration (0-3M), 24 h at 37° C.
  sensitivity to NaCl (hyperosmotic stress): as sensitive as the parental strain
C. albicans null mutants; als1 null mutant vs wild type
  NaCl sensitivity: +
C. albicans null mutants; hwp1 null mutant vs wild type
  NaCl sensitivity: +
C. albicans null mutants; mp65 null mutant vs wild type
  NaCl sensitivity: +
C. albicans null mutants; pra1 null mutant vs wild type
  NaCl sensitivity: +
C. albicans null mutants; sap9 null mutant vs wild type
  NaCl sensitivity: +

## CCCCCCCCCCCCOS(=O)(=O)[O-].[Na+] [SDS, sodium dodecyl sulfate]
C. albicans null mutants; mp65Δ, 6.1639Δ and sap9Δ, increasing concentrations of SDS (0-0.5%), 24 h at 37° C.
  sensitivity to SDS: hypersensitive

## C[C@@H]1[C@H](O)[C@@H](C)/C=C/C=C/C=C/C=C/C=C/C=C/C=C/[C@H](O[C@@H]2O[C@H](C)[C@@H](O)[C@H](N)[C@@H]2O)C[C@@H]2O[C@](O)(C[C@@H](O)C[C@@H](O)[C@H](O)CC[C@@H](O)C[C@@H](O)CC(=O)O[C@H]1C)C[C@H](O)[C@H]2C(=O)O [amphotericin B]
[1]; including the clinical isolate and parental strain, endpoint 100% inhibition
  MIC: 0.5 to 1 µg/mL

## OC(Cn1cncn1)(Cn1cncn1)c1ccc(F)cc1F [fluconazole]
[1]; [6]
  MIC: 0.25 µg/mL (≈ 0.816 µM)

## CCCCCOc1ccc(-c2cc(-c3ccc(C(=O)N[C@H]4C[C@@H](O)[C@@H](O)NC(=O)[C@@H]5[C@@H](O)[C@@H](C)CN5C(=O)[C@H]([C@H](O)CC(N)=O)NC(=O)[C@H]([C@H](O)[C@@H](O)c5ccc(O)c(OS(=O)(=O)O)c5)NC(=O)[C@@H]5C[C@@H](O)CN5C(=O)[C@H]([C@@H](C)O)NC4=O)cc3)no2)cc1 [micafungin] (X1-[Orn(4R-OH,5R-OH)]T[Hyp][hTyr(3S-OH,4S-OH,3'-OSO3H)][Gln(3R-OH)][Pro(3S-OH,4S-Me)]; lactam 1-C)
[1]; [6]
  MIC: 0.008 µg/mL (≈ 0.0063 µM)

## CC(C)c1nc(CN(C)C(=O)N[C@H](C(=O)N[C@@H](Cc2ccccc2)C[C@H](O)[C@H](Cc2ccccc2)NC(=O)OCc2cncs2)C(C)C)cs1 [ritonavir]
[2]
  inhibition of the activity of Sap2p, Sap1p, Sap1p and Sap1p: inhibit the activity

## CC(C)(C)NC(=O)[C@@H]1C[C@@H]2CCCC[C@@H]2CN1C[C@@H](O)[C@H](Cc1ccccc1)NC(=O)[C@H](CC(N)=O)NC(=O)c1ccc2ccccc2n1 [saquinavir]
[2]
  inhibition of the activity of Sap2p, Sap1p, Sap1p and Sap1p: inhibit the activity

B1: Mycograb: monoclonal antibodies directed against hsp90 in clinical trials for systemic candidiasis (antibody, chains of the INN, looked up, V domains shown)
VH: EVQLVESGAEVKKPGESLRISCKGSGCIISSYWISWVRQMPGKGLEWMGKIDPGDSYINYSPSFQGHVTISADKSINTAYLQWNSLKASDTAMYYCARGGRDFGDSFDYWGQGTLVTVSS
VL: DVVMTQSPSFLSAFVGDRITITCRASSGISRYLAWYQQAPGKAPKLLIYAASTLQTGVPSRFSGSGSGTEFTLTINSLQPEDFATYYCQHLNSYPLTFGGGTKVDIK
modifications: scFv
notes: monoclonal antibodies directed against hsp90 in clinical trials for systemic candidiasis
hsp90
  serious adverse events: No serious adverse events
